This note sets out measurements from patent US20240294508A1, “RIP1 MODULATORS INCLUDING AZETIDINE CYCLIC UREAS, PREPARATIONS, AND USES THEREOF” (SIRONAX LTD., priority 2021, published 2024).

The structures appear in SMILES notation.

The assay has as its system HT-29 cells. The assay can be described thus: HT29 cells 0FBS assay in vitro: TNF-α/SMAC mimetic/zVAD-FMK induced necroptosis, CellTiter-Glo cell viability (RIP1 inhibitory activity). It counts as cell-based. The conditions noted are these: Homo sapiens, FBS free medium, TNF-α (10 ng/ml) + SMAC mimetic (6 uM) + zVAD-FMK (10 μM), 20 hours, geometric mean EC50. The source says: Protocol for HT29 Cells 0FBS Assay In Vitro
• Cell line: HT-29 (ATCC® HTB-38™) • Culture medium: McCOY's 5A, Gibco, Cat No. 16600-082 • FBS, Gibco, Cat No. 10099-141C • Trypsin: Gibco, Cat No. 25200-056 • DMSO: Sigma, Cat No. 67-68-5, 1L • Assay plate: Corning #3903 • Compound dilution plate: Corning #3357 • Inducers: TNFα, GenScript, Cat No. Z01001-50, • SmacM, Cat. No., HY-15989, MedChemExpress (MCE) • Z_VAD FMK, TargetMol, T6013 • Cell Titer-Glo® Luminescent Cell Viability Assay Kit: Promega, Cat No. G7573 • EnVision: PerkinElmer, 2105-0010
2. Cell Seeding of HT-29 Cells
1) HT-29 cells were checked every day to make sure they are healthy and growing as expected. They were split sub-culturing when were approximately 80% confluent.
2) First pre-warm the culture medium of McCOY's 5A medium (Gibco, Cat No. 16600-082) with 10% FBS (Gibco, Cat No. 10099-141C) in 37° C. water bath for at least 30 min.
3) Growing cells to desired level of confluency 80% in a T75 flask, aspirate the medium, and wash with warm PBS two times.
4) Add 2-3 ml fresh warm trypsin (Gibco, Cat No. 25200-056) solution. Transfer the flask to a 37° C. incubator.
5) After 5 minutes, tap the side of the flask, and examine the flask under a microscope for lifting. If necessary, return the cells to the incubator for an additional 5-10 minutes, with occasional tapping, until lifting is complete.
6) Quickly neutralize the trypsin reaction by adding 6-9 ml cell culture medium, then transfer the cells to sterile 15 ml conical tubes. Pellet the cells by centrifugation at 300×g for 7 minutes, then decant the supernatant.
7) Resuspend the cells in fresh cell culture medium. Do cell counting with hemocytometer.
8) Seed 100 μl of 5,000 cells into each well of the sterile 96-well cell culture plate (Corning 3903) and culture overnight at 37° C. with 5% CO2.
3. Compounds Titration and Treatment of HT-29 Cells
1) All batches of compounds (CPDs0 (e.g., compound 1-169) were dissolved in DMSO (Dimethyl sulfoxide) as 20 mM stock solution.
2) Take 3 ul 20 mM stock solution of CPDs to […] DMSO and mix well, continue the titration ratio of 1:3 (20 ul CPDs+40 ul DMSO), e.g., to give solutions of CPDS at 6.6 mM, 2.2 mM, etc., till the 10 points end.
3) Take out assay plates with HT-29 cells from incubator, remove all culture medium then wash 1 time with 1×PBS, and change fresh McCOY's 5A medium of FBS free with a cocktail of TNF-α (10 ng/ml), the SMAC mimetic (6 uM) and zVAD-FMK (10 μM) to stimulate the HT-29 cells to increase pRIPK1 levels and necroptosis.
4) Add 0.5 μL of the diluted compound to the corresponding 96-well assay plates.
5) Incubate the assay plates for 20 hours at 37° C. with 5% CO2.
4. Performing Cell Viability Detection of HT-29 Cells after Treated with Compounds
1) The CellTiter-Glo® Luminescent Cell Viability Assay was employed to detect the ATP levels of viable HT-29 cells.
2) Equilibrate the CellTiter-Glo® buffer and the lyophilized substrate to room temperature prior to use.
3) Resuspend the CellTiter-Glo® substrate with CellTiter-Glo® buffer, mix by gently vortexing to obtain a homogeneous solution.
4) Pipette 20 μl the enzyme/substrate mixture by multi-channel pipette into the 96-well assay plates from step 5) under the Compounds titration and treatment stage.
5) Place the plates on an orbital shaker and mix the contents for 3 minutes to induce cell lysis.
6) Then allow the plates to incubate at room temperature for 10 minutes to stabilize luminescent signal.
7) Read and record luminescence signal with EnVision.
8) The geometric mean EC50 of the compounds were calculated from 10 points response dose with duplicate. In Table 2, activity is provided as follows: +++=0.1 nM≤EC50<100 nM; ++=100 nM≤EC5 1000 nM; […].
For `Cn1cccc(-c2cc(OC3CN(C(=O)N4N=CC[C@H]4c4cc(F)cc(F)c4)C3)c(F)cn2)c1=O` (stereo in doubt) [Compound 169, 4-((1-(5-(3,5-difluorophenyl)-4,5-dihydro-1H-pyrazole-1-carbonyl)azetidin-3-yl)oxy)-5-fluoro-1′-methyl-[2,3′-bipyridin]-2′(1′H)-one], the EC50 was 100 to 1000 nM.

Take `Cn1nccc1-c1ncc(F)c(OC2CN(C(=O)N3N=CC[C@H]3c3cc(F)cc(C#N)c3)C2)n1` [Compound 1, (S)-3-fluoro-5-(1-(3-((5-fluoro-2-(1-methyl-1H-pyrazol-5-yl)pyrimidin-4-yl)oxy)azetidine-1-carbonyl)-4,5-dihydro-1H-pyrazol-5-yl)benzonitrile]: the EC50 was 0.1 to 100 nM.

In the case of `Cn1nccc1-c1ncc(F)c(OC2CN(C(=O)N3N=CC[C@H]3c3cncc(F)c3)C2)n1` [Compound 2, (S)-(3-((5-fluoro-2-(1-methyl-1H-pyrazol-5-yl)pyrimidin-4-yl)oxy)azetidin-1-yl)(5-(5-fluoropyridin-3-yl)-4,5-dihydro-1H-pyrazol-1-yl)methanone], the EC50 was 0.1 to 100 nM.

Regarding `Cc1noc(C)c1-c1ncc(F)c(OC2CN(C(=O)N3N=CC[C@H]3c3cc(F)cc(C#N)c3)C2)n1` [Compound 3, (S)-3-(1-(3-((2-(3,5-dimethylisoxazol-4-yl)-5-fluoropyrimidin-4-yl)oxy)azetidine-1-carbonyl)-4,5-dihydro-1H-pyrazol-5-yl)-5-fluorobenzonitrile], the EC50 is 0.1 to 100 nM.

Regarding `Cc1noc(C)c1-c1ncc(F)c(OC2CN(C(=O)N3N=CC[C@H]3c3cncc(F)c3)C2)n1` [Compound 4, (S)-(3-((2-(3,5-dimethylisoxazol-4-yl)-5-fluoropyrimidin-4-yl)oxy)azetidin-1-yl)(5-(5-fluoropyridin-3-yl)-4,5-dihydro-1H-pyrazol-1-yl)methanone], the 50% effective concentration (EC50) lay within 0.1 to 100 nM.

`Cn1ncc(F)c1-c1cc(OC2CN(C(=O)N3N=CC[C@H]3c3cc(F)cc(C#N)c3)C2)c(F)cn1` [Compound 5, (S)-3-fluoro-5-(1-(3-((5-fluoro-2-(4-fluoro-1-methyl-1H-pyrazol-5-yl)pyridin-4-yl)oxy)azetidine-1-carbonyl)-4,5-dihydro-1H-pyrazol-5-yl)benzonitrile]: the concentration giving a half-maximal response (EC50) lay in the range of 0.1 to 100 nM.

With `Cn1ncc(Cl)c1-c1cc(OC2CN(C(=O)N3N=CC[C@H]3c3cc(F)cc(C#N)c3)C2)c(F)cn1` [Compound 6, (S)-3-(1-(3-((2-(4-chloro-1-methyl-1H-pyrazol-5-yl)-5-fluoropyridin-4-yl)oxy)azetidine-1-carbonyl)-4,5-dihydro-1H-pyrazol-5-yl)-5-fluorobenzonitrile], the EC50 lay within 0.1 to 100 nM.

Consider `Cn1nccc1-c1cc(OC2CN(C(=O)N3N=CC[C@H]3c3cc(F)cc(C#N)c3)C2)c(F)cn1` [Compound 7, (S)-3-fluoro-5-(1-(3-((5-fluoro-2-(1-methyl-1H-pyrazol-5-yl)pyridin-4-yl)oxy)azetidine-1-carbonyl)-4,5-dihydro-1H-pyrazol-5-yl)benzonitrile], for which the concentration for a half-maximal effect (EC50) was in the range of 0.1 to 100 nM.

`Cn1ncc(C#N)c1-c1ncc(F)c(OC2CN(C(=O)N3N=CC[C@H]3c3cc(F)cc(C#N)c3)C2)n1` [Compound 8, (S)-5-(4-((1-(5-(3-cyano-5-fluorophenyl)-4,5-dihydro-1H-pyrazole-1-carbonyl)azetidin-3-yl)oxy)-5-fluoropyrimidin-2-yl)-1-methyl-1H-pyrazole-4-carbonitrile]: the EC50 was 0.1 to 100 nM.

Regarding `Cn1ncc(C#N)c1-c1cc(OC2CN(C(=O)N3N=CC[C@H]3c3cc(F)cc(C#N)c3)C2)c(F)cn1` [Compound 9, (S)-5-(4-((1-(5-(3-cyano-5-fluorophenyl)-4,5-dihydro-1H-pyrazole-1-carbonyl)azetidin-3-yl)oxy)-5-fluoropyridin-2-yl)-1-methyl-1H-pyrazole-4-carbonitrile], the EC50 fell in the range of 0.1 to 100 nM.

`Cn1ncc(C(N)=O)c1-c1cc(OC2CN(C(=O)N3N=CC[C@H]3c3cc(F)cc(C#N)c3)C2)c(F)cn1` [Compound 10, (S)-5-(4-((1-(5-(3-cyano-5-fluorophenyl)-4,5-dihydro-1H-pyrazole-1-carbonyl)azetidin-3-yl)oxy)-5-fluoropyridin-2-yl)-1-methyl-1H-pyrazole-4-carboxamide]: the EC50 fell in the range of 100 to 1000 nM.

Turning to `Cc1cnn(C)c1-c1cc(OC2CN(C(=O)N3N=CC[C@H]3c3cc(F)cc(C#N)c3)C2)c(F)cn1` [Compound 11, (S)-3-(1-(3-((2-(1,4-dimethyl-1H-pyrazol-5-yl)-5-fluoropyridin-4-yl)oxy)azetidine-1-carbonyl)-4,5-dihydro-1H-pyrazol-5-yl)-5-fluorobenzonitrile], the EC50 was in the range of 0.1 to 100 nM.

On to `CCn1nccc1-c1cc(OC2CN(C(=O)N3N=CC[C@H]3c3cc(F)cc(C#N)c3)C2)c(F)cn1` [Compound 12, (S)-3-(1-(3-((2-(1-ethyl-1H-pyrazol-5-yl)-5-fluoropyridin-4-yl)oxy)azetidine-1-carbonyl)-4,5-dihydro-1H-pyrazol-5-yl)-5-fluorobenzonitrile], for which the EC50 was 0.1 to 100 nM.

Regarding `Cn1ccnc1-c1ccc(F)c(OC2CN(C(=O)N3N=CC[C@H]3c3cc(F)cc(C#N)c3)C2)n1` [Compound 13, (S)-3-fluoro-5-(1-(3-((3-fluoro-6-(1-methyl-1H-imidazol-2-yl)pyridin-2-yl)oxy)azetidine-1-carbonyl)-4,5-dihydro-1H-pyrazol-5-yl)benzonitrile], the EC50 was 0.1 to 100 nM.

Take `Cn1cc(-c2cc(OC3CN(C(=O)N4N=CC[C@H]4c4cc(F)cc(C#N)c4)C3)c(F)cn2)nn1` [Compound 14, (S)-3-fluoro-5-(1-(3-((5-fluoro-2-(1-methyl-1H-1,2,3-triazol-4-yl)pyridin-4-yl)oxy)azetidine-1-carbonyl)-4,5-dihydro-1H-pyrazol-5-yl)benzonitrile]: the EC50 fell in the range of 100 to 1000 nM.

For the molecule `Cn1ncc(-c2cc(OC3CN(C(=O)N4N=CC[C@H]4c4cc(F)cc(C#N)c4)C3)c(F)cn2)n1` [Compound 15, (S)-3-fluoro-5-(1-(3-((5-fluoro-2-(2-methyl-2H-1,2,3-triazol-4-yl)pyridin-4-yl)oxy)azetidine-1-carbonyl)-4,5-dihydro-1H-pyrazol-5-yl)benzonitrile], the EC50 lay within 100 to 1000 nM.

Regarding `Cn1ncc(Cl)c1-c1ncc(F)c(OC2CN(C(=O)N3N=CC[C@H]3c3cc(F)cc(C#N)c3)C2)n1` [Compound 16], the EC50 fell in the range of 0.1 to 100 nM.

Consider `Cc1nscc1-c1cc(OC2CN(C(=O)N3N=CC[C@H]3c3cc(F)cc(C#N)c3)C2)c(F)cn1` [Compound 17, (S)-3-fluoro-5-(1-(3-((5-fluoro-2-(3-methylisothiazol-4-yl)pyridin-4-yl)oxy)azetidine-1-carbonyl)-4,5-dihydro-1H-pyrazol-5-yl)benzonitrile], for which the EC50 fell in the range of 0.1 to 100 nM.

Turning to `Cc1ncsc1-c1cc(OC2CN(C(=O)N3N=CC[C@H]3c3cc(F)cc(C#N)c3)C2)c(F)cn1` [Compound 18, (S)-3-fluoro-5-(1-(3-((5-fluoro-2-(4-methylthiazol-5-yl)pyridin-4-yl)oxy)azetidine-1-carbonyl)-4,5-dihydro-1H-pyrazol-5-yl)benzonitrile], the half-maximal effective concentration (EC50) was 0.1 to 100 nM.

Turning to `Cc1n[nH]c(C)c1-c1cc(OC2CN(C(=O)N3N=CC[C@H]3c3cc(F)cc(C#N)c3)C2)c(F)cn1` [Compound 19, (S)-3-(1-(3-((2-(3,5-dimethyl-1H-pyrazol-4-yl)-5-fluoropyridin-4-yl)oxy)azetidine-1-carbonyl)-4,5-dihydro-1H-pyrazol-5-yl)-5-fluorobenzonitrile], the EC50 fell in the range of 0.1 to 100 nM.

By EC50 is commonly meant the concentration at which the effect is half-maximal.
